The record followed here is patent publication US6339075B1, “Use of dextran and other polysaccharides to improve mucus clearance” (The University of British Columbia, priority 1997, dated 2002).

The assay concerns healthy mongrel dogs. Description: Arginine aerosol with or without dextran in anaesthetized dogs: PD, TMV, mucus rigidity. Type of assay: in vivo, dog. The procedure: Arginine/arg. HCl was prepared as described by Solomons (Pediatrics 1971;47:384), making a stock solution of 290 mOsm, pH 7.4. Two dilutions were prepared, 97 and 29 mOsm, the balance being Ringers. The solutions were delivered by Pari jet nebulizer to 8 healthy mongrel dogs anaesthetized with pentobarbital and intubated. After 30 min. Ringer aerosol, tracheal mucus velocity (TMV by charcoal particle transport) and potential difference (PD by agar bridge) were measured under bronchoscopic control, and mucus for viscoelasticity analysis (magnetic rheometer) was collected on the endotracheal tube. On one occasion, increasing arginine conc. were aerosolized hourly, following Ringer control. On a second occasion, the same arginine solutions were used, but with 65 mg/ml low m. w. dextran (Polydex, lot #2764) added.

In the case of `N=C(N)NCCC[C@H](N)C(=O)O` [arginine, L-arginine], the TMV (arginine aerosol with or without dextran, increased nonsignificantly from 11.9±2.2 (Ringer)) is given as 14.7±2.9 mm/min. Besides, under “arginine aerosol without dextran”, the “mucus rigidity (log G*) decreased” value was “not”. For the same compound, the “lumen-negative PD” value (increasing arginine aerosol, with or without added dextran 65 mg/ml, Ringer −14.3±1.4 mV) was −20.1±3.6 mV.
